Biological target: SERT (Rattus norvegicus, UniProt P31652)
Type: binding
Settings: selectivity, ratio of Ki values

Chain of SERT (P31652 whole entry): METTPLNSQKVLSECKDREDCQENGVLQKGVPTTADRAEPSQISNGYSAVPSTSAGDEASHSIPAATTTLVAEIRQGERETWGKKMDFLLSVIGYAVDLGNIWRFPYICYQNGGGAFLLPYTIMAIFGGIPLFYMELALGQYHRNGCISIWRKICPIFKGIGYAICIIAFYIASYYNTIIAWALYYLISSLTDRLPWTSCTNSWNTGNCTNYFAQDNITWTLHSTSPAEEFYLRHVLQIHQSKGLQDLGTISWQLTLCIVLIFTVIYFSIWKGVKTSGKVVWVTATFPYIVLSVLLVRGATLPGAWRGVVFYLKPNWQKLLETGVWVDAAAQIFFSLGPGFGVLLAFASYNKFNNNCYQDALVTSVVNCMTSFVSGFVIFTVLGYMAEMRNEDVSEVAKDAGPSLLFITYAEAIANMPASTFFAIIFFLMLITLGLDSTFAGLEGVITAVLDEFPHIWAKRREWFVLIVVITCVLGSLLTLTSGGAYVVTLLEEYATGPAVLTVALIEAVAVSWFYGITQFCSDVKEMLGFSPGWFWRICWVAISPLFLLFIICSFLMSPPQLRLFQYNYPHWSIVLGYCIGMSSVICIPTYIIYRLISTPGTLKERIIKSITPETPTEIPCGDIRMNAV

Which NET/SERT does the source give for `Clc1ccc(CO[C@@]2(c3ccc(Cl)cc3)C[C@H]3CC[C@@H](C2)N3)cc1` [7f] here?
Its NET/SERT is 23,700.
